In PubChem BioAssay (NCI):
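Cells were grown in 96-well plates and exposed to each compound for 48 hours at five concentrations; endpoints were interpolated linearly between bracketing concentrations, or set to the highest concentration if not reached. TGI is the concentration that stops growth completely.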

How the values were obtained:
Test in all cases: inhibition of tumour cell growth, NCI panel, 48 h
786-0 renal = system: 786-0 renal
A549 NSCLC = system: A549 NSCLC
ACHN renal = system: ACHN renal
CAKI-1 renal = system: CAKI-1 renal
CCRF-CEM leukemia = system: CCRF-CEM leukemia
COLO 205 colon = system: COLO 205 colon
DLD-1 colon = system: DLD-1 colon
DMS 114 small cell lung = system: DMS 114 small cell lung
DMS 273 small cell lung = system: DMS 273 small cell lung
EKVX NSCLC = system: EKVX NSCLC
HCT-116 colon = system: HCT-116 colon
HCT-15 colon = system: HCT-15 colon
HL-60(TB) leukemia = system: HL-60(TB) leukemia
HOP-18 NSCLC = system: HOP-18 NSCLC
HOP-62 NSCLC = system: HOP-62 NSCLC
HOP-92 NSCLC = system: HOP-92 NSCLC
HT29 colon = system: HT29 colon
IGROV1 ovarian = system: IGROV1 ovarian
K-562 leukemia = system: K-562 leukemia
KM12 colon = system: KM12 colon
KM20L2 colon = system: KM20L2 colon
LOX IMVI melanoma = system: LOX IMVI melanoma
LXFL 529 NSCLC = system: LXFL 529 NSCLC
M14 melanoma = system: M14 melanoma
M19-MEL melanoma = system: M19-MEL melanoma
MALME-3M melanoma = system: MALME-3M melanoma
MOLT-4 leukemia = system: MOLT-4 leukemia
NCI-H23 lung = system: NCI-H23 lung
NCI-H460 lung = system: NCI-H460 lung
NCI-H522 lung = system: NCI-H522 lung
OVCAR-3 ovarian = system: OVCAR-3 ovarian
OVCAR-4 ovarian = system: OVCAR-4 ovarian
OVCAR-5 ovarian = system: OVCAR-5 ovarian
OVCAR-8 ovarian = system: OVCAR-8 ovarian
RXF 393 renal = system: RXF 393 renal
SF-268 CNS = system: SF-268 CNS
SF-295 CNS = system: SF-295 CNS
SF-539 CNS = system: SF-539 CNS
SK-MEL-2 melanoma = system: SK-MEL-2 melanoma
SK-MEL-28 melanoma = system: SK-MEL-28 melanoma
SK-MEL-5 melanoma = system: SK-MEL-5 melanoma
SK-OV-3 ovarian = system: SK-OV-3 ovarian
SN12C renal = system: SN12C renal
SNB-19 CNS = system: SNB-19 CNS
SNB-75 CNS = system: SNB-75 CNS
SNB-78 CNS = system: SNB-78 CNS
SR leukemia = system: SR leukemia
SW-620 colon = system: SW-620 colon
TK-10 renal = system: TK-10 renal
U251 CNS = system: U251 CNS
UACC-257 melanoma = system: UACC-257 melanoma
UACC-62 melanoma = system: UACC-62 melanoma
UO-31 renal = system: UO-31 renal

Measured: TGI

C(=N\OCc1ccccc1)/c1ncccc1C1OCCO1
> 100 µM: all assays above
